Assay results from patent US20140123342A1, “Regulation of Stomatal Apertures by Apyrases and Extracellular Nucleotides” (BOARD OF REGENTS, THE UNIVERSITY OF TEXAS SYSTEM, priority 2011, published 2014).

How the values were obtained:
[1] = system: stomata (guard cells) in epidermal peels; experiment: Stomatal aperture closure studies, epidermal peels in the light; format: cell-based, Arabidopsis thaliana; settings: 10 μM, epidermal peels, light, 1 h
Description: Stomatal Aperture Studies: Arabidopsis thaliana ecotypes Columbia (Col-0) and Wassilewskija (WS) were used as wild types in this study. Col-0, nia1nia2, atrbohD/F, R2-4A and WS plants were all grown on autoclaved Metro-Mix 200 soil at 22° C. under continuous light. The mutant seeds nia1nia2 nia2-5; CS 2356; Col-0 background) were obtained from Dr. N. M. Crawford (University of California at San Diego) and the mutant seeds atrbohD/F (Col-0 background) were obtained from Dr. J. M. Kwak (University of Maryland). The RNAi mutant apyrase line (R2-4A) is in WS background, so WS ecotype was used as the control wild type for these studies. Leaves from 2 to 3 week old Col-0 plants, or R2-4A and WS plants treated with 4 μM estradiol for 1 week after development of mature basal leaves were used for peel and whole leaf studies. Plants were placed in the dark and watered 24 h before an study. For opening studies, plants were used immediately after 24 h dark treatment and all treatments were done in the dark except for the light treated leaves or peels, thus the control stomata are dark controls. For closure studies, plants were placed in the light 3 h before an study to induce stomatal opening and all treatments were done in the light, thus the control stomata are light controls. For peel studies, epidermal peels were made from the underside of the leaf and treatments were applied to the peels for 1 h. For whole leaf studies, leaves were removed and treatments were applied for 2 h. For each treatment, about 3 or 4 peels collected from different leaves or 3 or 4 different leaves of at least two different plants were floated with the abaxial side up in petri dishes on 3 mL of Arabidopsis leaf buffer consisting of 10 mM KCl, 25 mM MES pH 6.15 (Melotto et al., 2006) and the chemical being tested. For whole leaf studies peels were collected after the treatment.
For studies testing the effects of ATPγS, ADPγS, AMPS, RB2, and PPADS (Sigma, St. Louis, Mo., USA) 20 mM stocks were made by dissolving the compounds in de-ionized water. For studies testing the effects of apyrase inhibitors, 7.5 mg/mL of NGXT191 and of inhibitor #13 (Windsor et al., 2002) was dissolved in dimethyl sulfoxide (DMSO) and then applied at a dilution of […] for a final concentration of 0.1% DMSO. ABA (Sigma, St. Louis, Mo., USA) was dissolved in ethanol in 10 mM stocks and then applied at a dilution of 1:1000. The stocks were stored at −20° C. while not in use. The production of the anti-AtAPY1 antibodies used is described by Steinebrunner et al. (2003). The crude immune and pre-immune sera were purified using protein A-Sepharose following the protocol described by Martin (1982) with the slight modification that the buffers used were azide-free. The protein-A purified sera were both used at a 1:1000 dilution in leaf stomatal aperture studies. The concentration of the immune and pre-immune sera, determined by Bradford assay (Bio-Rad), was 10.2 μg/mL and 7.7 μg/mL, respectively.
After treatment, photos of stomata were taken using a light microscope at 20×. Stomatal aperture width was measured using the image processing software ImageJ. Typically, photos were taken of 70 to 90 stomata per treatment of which only 50 stomata were measured for each treatment. For each treatment the ratio of closed stomata (width of 0) to open stomata was determined for all stomata imaged and this ratio was maintained in the 50 stomata that were measured for each treatment. Data shown uses apertures determined as width/length, however data in all studies also obtained as width only and generally width/length and width only data are in agreement with each other. Statistical significance of the measurements for the treatments was determined using the Student's t test in Microsoft Excel.

H2O2 in guard cells = experiment: Detection and quantification of H2O2 (H2DCFDA fluorescence); format: cell-based, Arabidopsis thaliana; settings: 10 μM, leaf epidermal tissue, after 30 min
Description: Detection and Quantification of H2O2 and NO: Col-0 plants were grown on soil for 2 to 4 weeks under continuous light at 21° C. Plants were placed in the dark for 24 h to ensure closure and then transferred to the light for 1 h. After 1 h in the light, mature basal leaves were excised and blended in a Waring blender on the low setting for approximately 10 s to isolate epidermal tissues, and the tissues were placed in 3 mL of 30 mM KCl, 10 mM Mes-KOH, pH 6.16 buffer in light for 2 h (Pei et al., 2000; Murata et al., 2001). DAF-2 DA and H2DCFDA were dissolved in DMSO to produce 5 mM and 10 mM stock solutions, respectively, and these were stored at −20° C. in 30 μL, aliquots. Fifty μM H2DCFDA or 15 μM DAF-2 DA was added to the medium in the dark, and after 30 min, 10 μM ABA, 200 μM ATPγS, or buffer (ATP control) was also added to the medium in the dark for 30 min. Peels were then rinsed by decanting the treatment solution and adding 3 mL fresh leaf buffer to the peels. Peels were rinsed twice as described. A peel from each of the three treatments (ABA, ATPγS and buffer) were placed on the same microscope slide and observed sequentially. A second study was staggered 30 to 45 min after the first by loading the H2DCFDA or DAF-2 DA dye to new peels 30 to 45 min after the first round of dye was added. Confocal laser scanning microscopy (CLSM) was performed with a Leica SP2 AOBS confocal microscope (Leica Microsystems, Bannockburn, Ill., USA). Laser power was set at 15%, with an excitation of 488 nm and an emission of 525 nm. A series of 0.5 μm optical sections with average intensity projection along the z axis were collected and made into one 2D image with greater focal depth. All images were obtained with the same software scanning settings including detector gain and laser intensity settings.

CC1=CC(=O)CC(C)(C)[C@@]1(O)/C=C/C(C)=C\C(=O)O [ABA, abscisic acid]
effect on stomatal aperture [1]: induced stomatal closure | increase in H2DCFDA fluorescence in guard cells (H2O2 in guard cells): 3 fold
